Data taken from patent publication US5013743A, “Selective antibacterial agent against campytobacter” (Takeda Chemical Industries, Ltd., priority 1989, dated 1991).
≈ marks a conversion by molar mass, not a printed value.

Legend:
Assay type in all cases: cell-based
C. pylori KS 13 = assay: MIC, agar-plate dilution method, test strain E; conditions: Helicobacter pylori, KS13, 72 h, Brucella agar, 37° C., 3 days
Description: (§1) The minimum inhibitory concentration (MIC) of each compound was determined by the agar-plate dilution method based on the standard method advocated by Japan Society of Chemotherapy [cf: Chemotherapy, Jan. '81, p. 76]. The volume of agar medium per plate was 20 ml. Each of the test compounds was dissolved in dimethylsulfoxide at a concentration of 80 mg/ml or 40 mg/ml, and diluted 10 times with sterile distilled water. Furthermore, the aqueous solution of 8 mg/ml or 4 mg/ml was diluted serially 2-fold with sterile distilled water. To 2 ml of the diluted solution was added 18 ml of Brucella agar (BBL Microbiology Systems, Becton Dickinson and Co., Cockeysville, Md. 21030) containing 7% defibrinated horse blood (manufactured by Nippon Bio-supp. Center) and mixed well. Test strains frozen at -80° C. in Brucella broth (BBL) containing 10% horse serum were thawed and inoculated on a Brucella agar slant medium containing 7% defibrinated horse blood. The medium was incubated anaerobically at 37° C. for 3 days in a jar containing a piece of sponge sufficiently impregnated with water and Campy Pak™ (BBL). The organisms grown on the slant medium were collected and suspended in a Brucella broth to correspond to the turbidity of about 10^8 CFU/ml of common bacteria. One platinum loop of inoculum was streaked on the medium plates for determination. The plates were incubated under the same conditions as described above.

C. pylori CPY 00111 = assay: MIC, agar-plate dilution method, test strain D; conditions: Helicobacter pylori, CPY00111, 72 h, Brucella agar, 37° C., 3 days
Description: as §1

C. pylori NCTC 11916 = assay: MIC, agar-plate dilution method, test strain A; conditions: Helicobacter pylori, NCTC11916, 72 h, Brucella agar, 37° C., 3 days
Description: as §1

aerobic bacteria = assay: Antibacterial action against aerobic bacteria (Table 4, summary in words); conditions: summary of Table 4
Source text: (§2) Antibacterial activities of some compounds of the present invention against aerobic common bacteria were examined.

C. pylori CLO 6 = assay: MIC, agar-plate dilution method, test strain G; conditions: Helicobacter pylori, CLO6, 72 h, Brucella agar, 37° C., 3 days
Description: as §1

S. aureus J-108 = assay: MIC, standard agar-plate dilution method, aerobic common bacteria; conditions: Staphylococcus aureus, J108
Source text: as §2

E. cloacae TN 583 = assay: as above; conditions: Enterobacter cloacae, TN583
Source text: as §2

E. cloacae IFO 12937 = assay: as above; conditions: Enterobacter cloacae, IFO12937
Source text: as §2

C. freundii IFO 12681 = assay: as above; conditions: Citrobacter freundii, IFO12681
Source text: as §2

P. aeruginosa U 31 = assay: as above; conditions: Pseudomonas aeruginosa, U31
Source text: as §2

P. aeruginosa P 9 = assay: as above; conditions: Pseudomonas aeruginosa, P9
Source text: as §2

S. aureus FDA 209P = assay: as above; conditions: Staphylococcus aureus, FDA209P
Source text: as §2

S. pneumoniae Type 1 = assay: as above; conditions: Streptococcus pneumoniae, TYPE1
Source text: as §2

S. pyogenes S-8 = assay: as above; conditions: Streptococcus pyogenes, S8
Source text: as §2

P. vulgaris IFO 3988 = assay: as above; conditions: Proteus vulgaris, IFO3988
Source text: as §2

C. diphtheriae Tront = assay: as above; conditions: Corynebacterium diphtheriae
Source text: as §2

E. coli 0-111 = assay: as above; conditions: Escherichia coli, 0111
Source text: as §2

P. aeruginosa IFO 3455 = assay: as above; conditions: Pseudomonas aeruginosa, IFO3455
Source text: as §2

S. mitis America = assay: as above; conditions: Streptococcus mitis
Source text: as §2

S. marcecens B 315 = assay: as above
Source text: as §2

P. aeruginosa B 184 = assay: as above; conditions: Pseudomonas aeruginosa, B184
Source text: as §2

S. aureus P 114 = assay: as above; conditions: Staphylococcus aureus, P114
Source text: as §2

E. coli NIHJ JC-2 = assay: as above; conditions: Escherichia coli, NIHJJC2
Source text: as §2

C. pylori PCL 56 = assay: MIC, agar-plate dilution method, test strain C; conditions: Helicobacter pylori, PCL56, 72 h, Brucella agar, 37° C., 3 days
Description: as §1, with “above. […] The results are shown in Table 2 and Table 3. | C: C. pylori PCL 56” for “above.”

C. pylori NCTC 11637 = assay: MIC, agar-plate dilution method, test strain B; conditions: Helicobacter pylori, NCTC11637, 72 h, Brucella agar, 37° C., 3 days
Description: as §1

C. pylori CLO 1 = assay: MIC, agar-plate dilution method, test strain F; conditions: Helicobacter pylori, CLO1, 72 h, Brucella agar, 37° C., 3 days
Description: as §1

Cc1c(OCC(F)(F)F)ccnc1C[S+]([O-])c1nc2ccccc2[nH]1 (stereo not drawn) [Compound 1]
MIC (C. pylori KS 13): 6.25 µg/mL (≈ 16.9 µM) | MIC (C. pylori CPY 00111): 6.25 µg/mL (≈ 16.9 µM) | MIC (C. pylori NCTC 11916): 12.5 µg/mL (≈ 33.8 µM) | antibacterial action against the aerobic bacteria (aerobic bacteria): did not possess at all antibacterial action | MIC (C. pylori CLO 6): 3.13 µg/mL (≈ 8.47 µM) | MIC (S. aureus J-108): > 400 µg/mL | MIC (E. cloacae TN 583): > 400 µg/mL | MIC (E. cloacae IFO 12937): > 400 µg/mL | MIC (C. freundii IFO 12681): > 400 µg/mL | MIC (P. aeruginosa U 31): > 400 µg/mL | MIC (P. aeruginosa P 9): > 400 µg/mL | MIC (S. aureus FDA 209P): > 400 µg/mL | MIC (S. pneumoniae Type 1): > 400 µg/mL | MIC (S. pyogenes S-8): > 400 µg/mL | MIC (P. vulgaris IFO 3988): > 400 µg/mL | MIC (C. diphtheriae Tront): > 400 µg/mL | MIC (E. coli 0-111): > 400 µg/mL | MIC (P. aeruginosa IFO 3455): > 400 µg/mL | MIC (S. mitis America): > 400 µg/mL | MIC (S. marcecens B 315): > 400 µg/mL | MIC (P. aeruginosa B 184): > 400 µg/mL | MIC (S. aureus P 114): > 400 µg/mL | MIC (E. coli NIHJ JC-2): > 400 µg/mL | MIC (C. pylori PCL 56): 6.25 µg/mL (≈ 16.9 µM) | MIC (C. pylori NCTC 11637): 6.25 µg/mL (≈ 16.9 µM) | MIC (C. pylori CLO 1): 6.25 µg/mL (≈ 16.9 µM)

COc1ccc2[nH]c([S+]([O-])Cc3ncc(C)c(OC)c3C)nc2c1 (stereo not drawn) [Compound 2]
MIC (C. pylori KS 13): 25 µg/mL (≈ 72.4 µM) | MIC (C. pylori CPY 00111): 12.5 µg/mL (≈ 36.2 µM) | MIC (C. pylori NCTC 11916): 25 µg/mL (≈ 72.4 µM) | antibacterial action against the aerobic bacteria (aerobic bacteria): did not possess at all antibacterial action | MIC (C. pylori CLO 6): 12.5 µg/mL (≈ 36.2 µM) | MIC (S. aureus J-108): > 400 µg/mL | MIC (E. cloacae TN 583): > 400 µg/mL | MIC (E. cloacae IFO 12937): > 400 µg/mL | MIC (C. freundii IFO 12681): > 400 µg/mL | MIC (P. aeruginosa U 31): > 400 µg/mL | MIC (P. aeruginosa P 9): > 400 µg/mL | MIC (S. aureus FDA 209P): > 400 µg/mL | MIC (S. pneumoniae Type 1): > 400 µg/mL | MIC (S. pyogenes S-8): > 400 µg/mL | MIC (P. vulgaris IFO 3988): > 400 µg/mL | MIC (C. diphtheriae Tront): > 400 µg/mL | MIC (E. coli 0-111): > 400 µg/mL | MIC (P. aeruginosa IFO 3455): > 400 µg/mL | MIC (S. mitis America): > 400 µg/mL | MIC (S. marcecens B 315): > 400 µg/mL | MIC (P. aeruginosa B 184): > 400 µg/mL | MIC (S. aureus P 114): > 400 µg/mL | MIC (E. coli NIHJ JC-2): > 400 µg/mL | MIC (C. pylori PCL 56): 12.5 µg/mL (≈ 36.2 µM) | MIC (C. pylori NCTC 11637): 25 µg/mL (≈ 72.4 µM) | MIC (C. pylori CLO 1): 25 µg/mL (≈ 72.4 µM)

Cc1c(OCC(F)(F)F)ccnc1CSc1nc2ccccc2[nH]1 [Compound 6]
MIC (C. pylori KS 13): 12.5 µg/mL (≈ 35.4 µM) | MIC (C. pylori CPY 00111): 3.13 µg/mL (≈ 8.86 µM) | MIC (C. pylori NCTC 11916): 6.25 µg/mL (≈ 17.7 µM) | antibacterial action against the aerobic bacteria (aerobic bacteria): did not possess at all antibacterial action | MIC (C. pylori CLO 6): 6.25 µg/mL (≈ 17.7 µM) | MIC (S. aureus J-108): > 400 µg/mL | MIC (E. cloacae TN 583): > 400 µg/mL | MIC (E. cloacae IFO 12937): > 400 µg/mL | MIC (C. freundii IFO 12681): > 400 µg/mL | MIC (P. aeruginosa U 31): > 400 µg/mL | MIC (P. aeruginosa P 9): > 400 µg/mL | MIC (S. aureus FDA 209P): > 400 µg/mL | MIC (S. pneumoniae Type 1): > 400 µg/mL | MIC (S. pyogenes S-8): > 400 µg/mL | MIC (P. vulgaris IFO 3988): > 400 µg/mL | MIC (C. diphtheriae Tront): > 400 µg/mL | MIC (E. coli 0-111): 40 µg/mL (≈ 113 µM) | MIC (P. aeruginosa IFO 3455): > 400 µg/mL | MIC (S. mitis America): > 400 µg/mL | MIC (S. marcecens B 315): > 400 µg/mL | MIC (P. aeruginosa B 184): > 400 µg/mL | MIC (S. aureus P 114): > 400 µg/mL | MIC (E. coli NIHJ JC-2): > 400 µg/mL | MIC (C. pylori PCL 56): 6.25 µg/mL (≈ 17.7 µM) | MIC (C. pylori NCTC 11637): 12.5 µg/mL (≈ 35.4 µM) | MIC (C. pylori CLO 1): 25 µg/mL (≈ 70.7 µM)
